Our source for the IC50 values is PMC13047053, “Crystal structure of human INPP5K with an allosteric inhibitor reveals the structural basis for species specific potency” (Scientific Reports, 2026).

What is called IC50 is the concentration needed to halve the response being measured. A high value points to lower potency.

For this test, the target named is guinea pig INPP5K (Cavia porcellus, UniProt H0V8T7). Nature of the test: Inorganic phosphate detection assay for phosphatase inhibition. Particulars: 20 µM diC8-PI(3,4,5)P3, 20 min. The format is biochemical.
Chain of guinea pig INPP5K (H0V8T7 entry or part of it): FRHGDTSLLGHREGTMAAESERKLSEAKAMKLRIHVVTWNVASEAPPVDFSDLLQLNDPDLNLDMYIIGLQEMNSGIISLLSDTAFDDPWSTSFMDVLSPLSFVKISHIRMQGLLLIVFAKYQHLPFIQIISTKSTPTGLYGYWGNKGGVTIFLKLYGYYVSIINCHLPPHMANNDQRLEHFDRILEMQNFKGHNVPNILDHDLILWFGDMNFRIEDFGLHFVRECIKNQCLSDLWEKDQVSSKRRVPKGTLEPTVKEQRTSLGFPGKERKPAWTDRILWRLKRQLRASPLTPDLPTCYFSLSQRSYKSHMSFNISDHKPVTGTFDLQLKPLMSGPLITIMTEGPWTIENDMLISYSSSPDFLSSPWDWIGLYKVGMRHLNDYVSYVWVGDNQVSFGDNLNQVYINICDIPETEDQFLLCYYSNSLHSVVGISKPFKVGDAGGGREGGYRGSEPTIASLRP

For the compound `CC(C)c1sc(NC(=O)c2ccccc2)c(C(=O)O)c1-c1ccccc1` [CPD-1], half-maximal inhibition (IC50) required 59 µM.
